Paper PMC5761851, “Application of a phenotypic drug discovery strategy to identify biological and chemical starting points for inhibition of TSLP production in lung epithelial cells” (PLoS ONE, 2018)
Like-named read-outs stand apart in the source and are kept apart here.

Columns and labels:
sst4 = target: T1, sst4 (Homo sapiens, UniProt P31391); assay: BioPrint panel: sst4 (h) (agonist); assay type: binding; settings: 1 micromolar, read-out: percentage of inhibition of activity
T1 construct: purchased Eurofins Pharma Discovery Services (KinaseProfiler; Cerep BioPrint panel)
T1 sequence (P31391 whole entry): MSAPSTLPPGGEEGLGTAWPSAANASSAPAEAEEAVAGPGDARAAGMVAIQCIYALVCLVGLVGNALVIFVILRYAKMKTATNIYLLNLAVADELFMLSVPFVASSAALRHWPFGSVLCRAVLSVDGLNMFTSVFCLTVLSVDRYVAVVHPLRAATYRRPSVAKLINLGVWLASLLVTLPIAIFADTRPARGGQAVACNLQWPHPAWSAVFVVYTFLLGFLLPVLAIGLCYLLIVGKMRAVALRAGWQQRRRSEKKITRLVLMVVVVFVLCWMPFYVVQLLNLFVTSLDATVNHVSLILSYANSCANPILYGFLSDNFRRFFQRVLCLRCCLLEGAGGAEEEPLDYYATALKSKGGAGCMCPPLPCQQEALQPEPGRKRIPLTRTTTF
Text: (§1) Supplement pone.0189247.s004.xlsx, sheet "Bioprint Selectivity Panel" | column: %

MMP-1 = target: T2, MMP-1 (Homo sapiens, UniProt P03956); assay: BioPrint panel: MMP-1 (h); assay type: biochemical; settings: 1 micromolar
T2 construct: purchased Eurofins Pharma Discovery Services (KinaseProfiler; Cerep BioPrint panel)
Text: as §1

D2S = target: T3, D2S (Homo sapiens, UniProt P14416); assay: BioPrint panel: D2S (h) (agonist); assay type: binding; settings: 1 micromolar, read-out: percentage of inhibition of activity
T3 construct: purchased Eurofins Pharma Discovery Services (KinaseProfiler; Cerep BioPrint panel)
Text: as §1

A2A = target: T4, A2A (Homo sapiens, UniProt P29274); assay: BioPrint panel: A2A (h) (agonist); assay type: binding; settings: 1 micromolar, read-out: percentage of inhibition of activity
T4 construct: purchased Eurofins Pharma Discovery Services (KinaseProfiler; Cerep BioPrint panel)
T4 sequence (P29274 whole entry): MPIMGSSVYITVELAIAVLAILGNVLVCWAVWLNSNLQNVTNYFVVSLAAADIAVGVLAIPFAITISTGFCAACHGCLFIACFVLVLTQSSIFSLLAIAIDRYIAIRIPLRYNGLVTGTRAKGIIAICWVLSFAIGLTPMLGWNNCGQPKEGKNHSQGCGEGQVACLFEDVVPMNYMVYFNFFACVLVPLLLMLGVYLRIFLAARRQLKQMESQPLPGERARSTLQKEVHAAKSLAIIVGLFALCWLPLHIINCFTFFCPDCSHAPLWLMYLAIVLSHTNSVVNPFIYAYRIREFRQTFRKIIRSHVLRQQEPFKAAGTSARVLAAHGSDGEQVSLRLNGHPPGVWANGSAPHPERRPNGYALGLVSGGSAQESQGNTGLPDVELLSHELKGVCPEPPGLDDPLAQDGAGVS
Text: as §1

inducible NOS = target: T5, inducible NOS (Mus musculus, UniProt P29477); assay: BioPrint panel: inducible NOS; assay type: biochemical; settings: 1 micromolar, read-out: percentage of inhibition of activity
T5 construct: purchased Eurofins Pharma Discovery Services (KinaseProfiler; Cerep BioPrint panel)
Text: as §1

5-HT4e = target: T6, 5-HT4e (Homo sapiens, UniProt Q13639); assay: BioPrint panel: 5-HT4e (h) (antagonist); assay type: binding; settings: 1 micromolar, read-out: percentage of inhibition of activity
T6 construct: purchased Eurofins Pharma Discovery Services (KinaseProfiler; Cerep BioPrint panel)
T6 sequence (Q13639 1-378 isoform Q13639-5): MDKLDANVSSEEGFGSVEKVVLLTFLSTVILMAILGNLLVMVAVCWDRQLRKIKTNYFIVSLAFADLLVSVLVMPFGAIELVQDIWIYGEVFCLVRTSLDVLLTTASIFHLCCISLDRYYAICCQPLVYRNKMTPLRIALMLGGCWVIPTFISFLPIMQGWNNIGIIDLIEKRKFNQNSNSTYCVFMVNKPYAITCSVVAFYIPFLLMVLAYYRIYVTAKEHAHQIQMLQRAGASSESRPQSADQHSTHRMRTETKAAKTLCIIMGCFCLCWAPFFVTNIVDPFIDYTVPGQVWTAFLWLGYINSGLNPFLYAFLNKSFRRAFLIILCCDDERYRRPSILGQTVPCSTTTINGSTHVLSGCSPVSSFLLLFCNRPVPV
Text: as §1

CysLT1 (LTD4) = target: T7, CysLT1 (LTD4) (Homo sapiens, UniProt Q9Y271); assay: BioPrint panel: CysLT1 (LTD4) (h) (agonist); assay type: binding; settings: 1 micromolar, read-out: percentage of inhibition of activity
T7 construct: purchased Eurofins Pharma Discovery Services (KinaseProfiler; Cerep BioPrint panel)
Text: as §1

P-gp = target: T8, P-gp (Homo sapiens, UniProt P08183); assay: BioPrint panel: P-gp (MDR1-MDCKII, calcein AM substrate); assay type: in vitro ADME; settings: 10 micromolar
T8 construct: purchased Eurofins Pharma Discovery Services (KinaseProfiler; Cerep BioPrint panel)
Text: as §1

AT1 = target: T9, AT1 (Homo sapiens, UniProt P30556); assay: BioPrint panel: AT1 (h) (antagonist); assay type: binding; settings: 1 micromolar, read-out: percentage of inhibition of activity
T9 construct: purchased Eurofins Pharma Discovery Services (KinaseProfiler; Cerep BioPrint panel)
Text: as §1

caspase-3 = target: T10, caspase-3 (Homo sapiens, UniProt P42574); assay: BioPrint panel: caspase-3 (h); assay type: biochemical; settings: 1 micromolar, read-out: percentage of inhibition of activity
T10 construct: purchased Eurofins Pharma Discovery Services (KinaseProfiler; Cerep BioPrint panel)
Text: as §1

MT1 (ML1A) = target: T11, MT1 (ML1A) (Homo sapiens, UniProt P48039); assay: BioPrint panel: MT1 (ML1A) (h) (agonist); assay type: binding; settings: 1 micromolar, read-out: percentage of inhibition of activity
T11 construct: purchased Eurofins Pharma Discovery Services (KinaseProfiler; Cerep BioPrint panel)
Text: as §1

CaMK2alpha = target: T12, CaMK2alpha (Homo sapiens, UniProt Q9UQM7); assay: BioPrint panel: CaMK2alpha (h); assay type: biochemical; settings: 1 micromolar, read-out: percentage of inhibition of activity
T12 construct: purchased Eurofins Pharma Discovery Services (KinaseProfiler; Cerep BioPrint panel)
Text: as §1

ATPase (Na+/K+) = assay: BioPrint panel: ATPase (Na+/K+); assay type: biochemical; settings: 1 micromolar
Text: as §1

MC3 = target: T13, MC3 (Homo sapiens, UniProt P41968); assay: BioPrint panel: MC3 (h) (agonist); assay type: binding; settings: 1 micromolar, read-out: percentage of inhibition of activity
T13 construct: purchased Eurofins Pharma Discovery Services (KinaseProfiler; Cerep BioPrint panel)
Text: as §1

Ca2+ channel (N) = target: T14, Ca2+ channel (N) (Rattus norvegicus, UniProt Q02294); assay: BioPrint panel: Ca2+ channel (N) (antagonist); assay type: binding; settings: 1 micromolar, read-out: percentage of inhibition of activity
T14 construct: purchased Eurofins Pharma Discovery Services (KinaseProfiler; Cerep BioPrint panel)
Text: as §1

B2 = target: T15, B2 (Homo sapiens, UniProt P30411); assay: BioPrint panel: B2 (h) (agonist); assay type: binding; settings: 1 micromolar, read-out: percentage of inhibition of activity
T15 construct: purchased Eurofins Pharma Discovery Services (KinaseProfiler; Cerep BioPrint panel)
Text: as §1

ETA = target: T16, ETA (Homo sapiens, UniProt P25101); assay: BioPrint panel: ETA (h) (agonist); assay type: binding; settings: 1 micromolar, read-out: percentage of inhibition of activity
T16 construct: purchased Eurofins Pharma Discovery Services (KinaseProfiler; Cerep BioPrint panel)
Text: as §1

CB1 = target: T17, CB1 (Homo sapiens, UniProt P21554); assay: BioPrint panel: CB1 (h) (agonist); assay type: binding; settings: 1 micromolar, read-out: percentage of inhibition of activity
T17 construct: purchased Eurofins Pharma Discovery Services (KinaseProfiler; Cerep BioPrint panel)
Text: as §1

DNA-PK = target: T18, DNA-PK (Homo sapiens, UniProt P78527); assay: DNA-PK activity (SelectScreen); settings: biochemical dose response, duplicate; read-out: Inhibition of indicated activity (IC50, μM): DNA-PK
T18 construct: Thermo Fisher Scientific SelectScreen (contract assay service)
Method: Kinase selectivity was evaluated at Eurofins Pharma Discovery Services using a selection of 125 representative kinases tested at a concentration of 10 μM in duplicate (S3 Table). IC50 values for selected activities were further characterized at 9 duplicate concentrations. DNA-PK activity was determined at the SelectScreen® Biochemical kinase Profiling Service of Thermo Fisher Scientific.

BACE-1 (beta -secretase) = target: T19, BACE-1 (beta -secretase) (Homo sapiens, UniProt P56817); assay: BioPrint panel: BACE-1 (h) (beta -secretase); assay type: biochemical; settings: 1 micromolar, read-out: percentage of inhibition of activity
T19 construct: purchased Eurofins Pharma Discovery Services (KinaseProfiler; Cerep BioPrint panel)
T19 sequence (P56817 46-501): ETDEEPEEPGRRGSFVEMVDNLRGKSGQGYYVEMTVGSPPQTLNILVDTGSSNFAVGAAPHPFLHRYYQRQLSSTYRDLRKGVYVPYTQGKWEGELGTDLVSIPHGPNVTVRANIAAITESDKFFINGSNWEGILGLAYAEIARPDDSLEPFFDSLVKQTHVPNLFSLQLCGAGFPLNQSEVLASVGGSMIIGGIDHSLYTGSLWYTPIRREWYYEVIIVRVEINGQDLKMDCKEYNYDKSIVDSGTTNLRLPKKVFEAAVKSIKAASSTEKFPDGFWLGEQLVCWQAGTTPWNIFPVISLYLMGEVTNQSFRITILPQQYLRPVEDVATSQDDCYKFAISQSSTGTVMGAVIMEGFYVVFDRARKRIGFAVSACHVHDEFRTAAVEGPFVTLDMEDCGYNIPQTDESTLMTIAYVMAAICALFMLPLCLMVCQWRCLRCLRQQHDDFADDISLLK
Text: as §1

CB2 = target: T20, CB2 (Homo sapiens, UniProt P34972); assay: BioPrint panel: CB2 (h) (agonist); assay type: binding; settings: 1 micromolar, read-out: percentage of inhibition of activity
T20 construct: purchased Eurofins Pharma Discovery Services (KinaseProfiler; Cerep BioPrint panel)
T20 sequence (P34972 whole entry): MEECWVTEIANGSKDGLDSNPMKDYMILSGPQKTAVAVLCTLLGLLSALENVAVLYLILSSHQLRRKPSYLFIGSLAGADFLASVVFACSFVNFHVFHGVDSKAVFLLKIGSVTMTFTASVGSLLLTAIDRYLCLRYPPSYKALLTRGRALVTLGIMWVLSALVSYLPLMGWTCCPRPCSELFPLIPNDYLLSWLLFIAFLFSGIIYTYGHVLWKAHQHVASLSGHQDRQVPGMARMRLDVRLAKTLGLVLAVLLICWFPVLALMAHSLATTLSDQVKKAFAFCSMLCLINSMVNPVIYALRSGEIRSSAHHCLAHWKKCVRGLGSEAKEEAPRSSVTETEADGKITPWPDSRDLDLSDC
Text: as §1

delta 2 (DOP) = target: T21, delta 2 (DOP) (Homo sapiens, UniProt P41143); assay: BioPrint panel: delta 2 (DOP) (h) (agonist); assay type: binding; settings: 1 micromolar, read-out: percentage of inhibition of activity
T21 construct: purchased Eurofins Pharma Discovery Services (KinaseProfiler; Cerep BioPrint panel)
T21 sequence (P41143 whole entry): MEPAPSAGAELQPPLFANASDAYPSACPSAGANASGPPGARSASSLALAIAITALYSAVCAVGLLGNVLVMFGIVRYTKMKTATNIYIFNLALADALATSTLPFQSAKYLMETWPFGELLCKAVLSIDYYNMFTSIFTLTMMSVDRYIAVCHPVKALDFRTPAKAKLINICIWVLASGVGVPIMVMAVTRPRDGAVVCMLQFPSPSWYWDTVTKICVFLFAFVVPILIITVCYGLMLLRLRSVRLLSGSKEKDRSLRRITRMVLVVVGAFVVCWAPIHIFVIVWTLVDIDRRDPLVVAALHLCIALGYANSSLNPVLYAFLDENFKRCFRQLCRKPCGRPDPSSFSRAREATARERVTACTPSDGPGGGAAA
Text: as §1

Y1 = target: T22, Y1 (Homo sapiens, UniProt P25929); assay: BioPrint panel: Y1 (h) (agonist); assay type: binding; settings: 1 micromolar, read-out: percentage of inhibition of activity
T22 construct: purchased Eurofins Pharma Discovery Services (KinaseProfiler; Cerep BioPrint panel)
Text: as §1

5-HT2C = target: T23, 5-HT2C (Homo sapiens, UniProt P28335); assay: BioPrint panel: 5-HT2C (h) (agonist); assay type: binding; settings: 1 micromolar, read-out: percentage of inhibition of activity
T23 construct: purchased Eurofins Pharma Discovery Services (KinaseProfiler; Cerep BioPrint panel)
T23 sequence (P28335 33-458): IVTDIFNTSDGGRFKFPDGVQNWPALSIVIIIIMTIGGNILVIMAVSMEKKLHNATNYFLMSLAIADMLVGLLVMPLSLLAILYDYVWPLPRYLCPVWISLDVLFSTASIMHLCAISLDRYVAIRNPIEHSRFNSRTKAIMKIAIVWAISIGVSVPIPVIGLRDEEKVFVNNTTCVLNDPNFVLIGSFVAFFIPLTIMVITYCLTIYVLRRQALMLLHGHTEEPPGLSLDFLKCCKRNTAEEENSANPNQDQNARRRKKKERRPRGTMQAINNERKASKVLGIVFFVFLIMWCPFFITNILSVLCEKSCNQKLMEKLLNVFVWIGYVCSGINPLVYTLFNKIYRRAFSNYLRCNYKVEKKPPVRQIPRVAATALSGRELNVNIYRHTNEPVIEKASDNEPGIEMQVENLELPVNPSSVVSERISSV
Text: as §1

[1] = test system: glycine (strychnine-insensitive); assay: BioPrint panel: glycine (strychnine-insensitive)(antagonist); assay type: binding; settings: 1 micromolar
Text: as §1

neutral endopeptidase = target: T24, neutral endopeptidase (Homo sapiens, UniProt P08473); assay: BioPrint panel: neutral endopeptidase (h); assay type: biochemical; settings: 1 micromolar, read-out: percentage of inhibition of activity
T24 construct: purchased Eurofins Pharma Discovery Services (KinaseProfiler; Cerep BioPrint panel)
T24 sequence (P08473 whole entry): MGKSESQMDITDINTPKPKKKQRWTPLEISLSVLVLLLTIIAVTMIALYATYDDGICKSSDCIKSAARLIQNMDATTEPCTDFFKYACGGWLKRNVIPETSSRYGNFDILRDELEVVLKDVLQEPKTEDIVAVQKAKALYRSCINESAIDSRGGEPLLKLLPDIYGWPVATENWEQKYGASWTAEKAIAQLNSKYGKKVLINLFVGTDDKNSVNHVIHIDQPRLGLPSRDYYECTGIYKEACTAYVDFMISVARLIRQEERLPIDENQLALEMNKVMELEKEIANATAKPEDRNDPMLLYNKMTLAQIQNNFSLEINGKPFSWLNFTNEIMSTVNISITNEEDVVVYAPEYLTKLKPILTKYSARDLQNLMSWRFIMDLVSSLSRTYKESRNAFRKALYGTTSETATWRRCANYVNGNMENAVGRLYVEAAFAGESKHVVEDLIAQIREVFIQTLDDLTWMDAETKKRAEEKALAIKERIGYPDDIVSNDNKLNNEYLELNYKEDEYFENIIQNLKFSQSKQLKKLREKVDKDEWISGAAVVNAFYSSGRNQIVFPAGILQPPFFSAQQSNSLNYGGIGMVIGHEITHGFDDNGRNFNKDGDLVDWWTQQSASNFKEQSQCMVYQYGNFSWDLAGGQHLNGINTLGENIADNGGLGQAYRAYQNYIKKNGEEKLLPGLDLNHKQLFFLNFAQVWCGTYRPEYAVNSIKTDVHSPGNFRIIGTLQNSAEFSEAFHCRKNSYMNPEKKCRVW
Text: as §1

GR = target: T25, GR (Homo sapiens, UniProt P04150); assay: BioPrint panel: GR (h) (agonist); assay type: binding; settings: 1 micromolar, read-out: percentage of inhibition of activity
T25 construct: purchased Eurofins Pharma Discovery Services (KinaseProfiler; Cerep BioPrint panel)
Text: as §1

VPAC1 (VIP1) = target: T26, VPAC1 (VIP1) (Homo sapiens, UniProt P32241); assay: BioPrint panel: VPAC1 (VIP1) (h) (agonist); assay type: binding; settings: 1 micromolar, read-out: percentage of inhibition of activity
T26 construct: purchased Eurofins Pharma Discovery Services (KinaseProfiler; Cerep BioPrint panel)
T26 sequence (P32241 31-457): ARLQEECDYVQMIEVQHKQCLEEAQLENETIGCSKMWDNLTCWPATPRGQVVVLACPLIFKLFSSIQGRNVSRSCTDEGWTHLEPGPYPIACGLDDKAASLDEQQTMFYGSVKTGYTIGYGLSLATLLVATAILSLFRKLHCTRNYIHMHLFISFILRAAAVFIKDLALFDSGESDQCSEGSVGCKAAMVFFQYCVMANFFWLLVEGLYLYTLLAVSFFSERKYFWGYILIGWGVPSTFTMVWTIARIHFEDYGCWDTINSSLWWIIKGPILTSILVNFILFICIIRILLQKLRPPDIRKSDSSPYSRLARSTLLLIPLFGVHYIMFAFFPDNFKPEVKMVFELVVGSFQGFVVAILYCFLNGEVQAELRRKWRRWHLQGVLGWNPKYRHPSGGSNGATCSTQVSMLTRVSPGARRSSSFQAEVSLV
Text: as §1

AT2 = target: T27, AT2 (Homo sapiens, UniProt P50052); assay: BioPrint panel: AT2 (h) (agonist); assay type: binding; settings: 1 micromolar, read-out: percentage of inhibition of activity
T27 construct: purchased Eurofins Pharma Discovery Services (KinaseProfiler; Cerep BioPrint panel)
T27 sequence (P50052 whole entry): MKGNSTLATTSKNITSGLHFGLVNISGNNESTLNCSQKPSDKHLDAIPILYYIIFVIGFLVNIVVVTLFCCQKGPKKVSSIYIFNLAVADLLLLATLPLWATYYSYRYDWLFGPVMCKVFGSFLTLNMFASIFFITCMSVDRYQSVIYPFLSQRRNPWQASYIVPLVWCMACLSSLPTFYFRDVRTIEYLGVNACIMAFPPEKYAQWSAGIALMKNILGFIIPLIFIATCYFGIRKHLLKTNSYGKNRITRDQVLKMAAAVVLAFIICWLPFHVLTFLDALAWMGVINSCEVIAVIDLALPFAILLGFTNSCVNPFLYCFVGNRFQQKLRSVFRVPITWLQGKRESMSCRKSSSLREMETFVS
Text: as §1

M2 = target: T28, M2 (Homo sapiens, UniProt P08172); assay: BioPrint panel: M2 (h) (antagonist); assay type: binding; settings: 1 micromolar, read-out: percentage of inhibition of activity
T28 construct: purchased Eurofins Pharma Discovery Services (KinaseProfiler; Cerep BioPrint panel)
Text: as §1

FP = target: T29, FP (Homo sapiens, UniProt P43088); assay: BioPrint panel: FP (h) (agonist); assay type: binding; settings: 1 micromolar, read-out: percentage of inhibition of activity
T29 construct: purchased Eurofins Pharma Discovery Services (KinaseProfiler; Cerep BioPrint panel)
Text: as §1

5-HT1B = target: T30, 5-HT1B (Rattus norvegicus, UniProt P28564); assay: BioPrint panel: 5-HT1B (antagonist); assay type: binding; settings: 1 micromolar, read-out: percentage of inhibition of activity
T30 construct: purchased Eurofins Pharma Discovery Services (KinaseProfiler; Cerep BioPrint panel)
T30 sequence (P28564 whole entry): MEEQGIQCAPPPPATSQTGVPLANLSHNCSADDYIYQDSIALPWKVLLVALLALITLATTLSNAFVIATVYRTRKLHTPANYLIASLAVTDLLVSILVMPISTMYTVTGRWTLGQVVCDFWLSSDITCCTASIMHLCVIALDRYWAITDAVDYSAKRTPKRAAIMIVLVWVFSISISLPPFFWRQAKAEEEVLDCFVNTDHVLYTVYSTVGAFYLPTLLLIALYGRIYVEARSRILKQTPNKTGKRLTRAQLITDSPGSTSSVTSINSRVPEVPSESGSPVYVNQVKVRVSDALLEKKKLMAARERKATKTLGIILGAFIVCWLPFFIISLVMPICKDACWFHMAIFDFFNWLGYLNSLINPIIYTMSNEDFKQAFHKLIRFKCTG
Text: as §1

[2] = test system: Ca2+ channel (L, dihydropyridine site); assay: BioPrint panel: Ca2+ channel (L, dihydropyridine site) (antagonist); assay type: binding; settings: 1 micromolar
Text: as §1

[3] = test system: Phosphorylation of Akt in THP1 cells; assay: PI3Kδ dependent pAkt phosphorylation in M-CSF stimulated THP-1 cells; assay type: cell-based
Method: Quantification of enzymatic p38 activity and p38-dependent TNF production in THP-1 cells was performed as previously described. Enzymatic Syk kinase activity assays and Syk dependent LAD2 cells degranulation assays were performed as previously described. PI3Kδ dependent pAkt phosphorylation in macrophage colony-stimulating factor (M-CSF) stimulated THP-1 cells was measured as previously described.

AMPA = assay: BioPrint panel: AMPA (agonist); assay type: binding; settings: 1 micromolar
Text: as §1

FLT-1 kinase (VEGFR1) = target: T31, FLT-1 kinase (VEGFR1) (Homo sapiens, UniProt P17948); assay: BioPrint panel: FLT-1 kinase (h) (VEGFR1); assay type: biochemical; settings: 1 micromolar, read-out: percentage of inhibition of activity
T31 construct: purchased Eurofins Pharma Discovery Services (KinaseProfiler; Cerep BioPrint panel)
Text: as §1

## Cn1cc(-c2cccc(-c3nc(C(=O)NC4C5CC6CC4CC(O)(C6)C5)c(N)nc3N)c2)cn1 (centres unmarked) [compound 4]
sst4
  inhibition at 1 µM: -11.8%
MMP-1
  percentage of inhibition of activity: INTER
D2S
  inhibition at 1 µM: -1.5%
A2A
  inhibition at 1 µM: -5.3%
Inducible NOS
  inhibition at 1 µM: -8.8%
5-HT4e
  inhibition at 1 µM: 3.8%
CysLT1 (LTD4)
  inhibition at 1 µM: 6.1%
P-gp
  percentage of inhibition of activity: 82.8%
AT1
  inhibition at 1 µM: -6.4%
caspase-3
  inhibition at 1 µM: 3.9%
MT1 (ML1A)
  inhibition at 1 µM: 4.2%
CaMK2alpha
  inhibition at 1 µM: -53.9%
ATPase (Na+/K+)
  percentage of inhibition of activity: 0%
MC3
  inhibition at 1 µM: 8.8%
Ca2+ channel (N)
  inhibition at 1 µM: -2.7%
B2
  inhibition at 1 µM: -1%
ETA
  inhibition at 1 µM: -12.5%
CB1
  inhibition at 1 µM: 3.7%
DNA-PK
  IC50: 0.348 µM
BACE-1 (beta -secretase)
  inhibition at 1 µM: -7.3%
CB2
  inhibition at 1 µM: -12.2%
Delta 2 (DOP)
  inhibition at 1 µM: -0.2%
Y1
  inhibition at 1 µM: -9.2%
5-HT2C
  inhibition at 1 µM: -17.7%
[1]
  percentage of inhibition of activity: -5.3%
Neutral endopeptidase
  inhibition at 1 µM: 15.6%
GR
  inhibition at 1 µM: 0.9%
VPAC1 (VIP1)
  inhibition at 1 µM: -4.6%
AT2
  inhibition at 1 µM: -8%
M2
  inhibition at 1 µM: 19.5%
FP
  inhibition at 1 µM: 4.8%
5-HT1B
  inhibition at 1 µM: -1.1%
[2]
  percentage of inhibition of activity: -3.5%
[3]; Homo sapiens, THP-1, M-CSF stimulated, geometric mean, read-out: Activity in reference cell based assay (IC50, μM) (95% CI) Phosphorylation of Akt in THP1 cells
  IC50: 0.099 µM
[3]; Homo sapiens, THP-1, individual values, read-out: Cellular activity (IC50, mM) Akt phosphorylation in THP1
  IC50: 0.085 µM
[3]; individual values, read-out: Cellular activity (IC50, mM) Akt phosphorylation in THP1
  IC50: 0.117 µM
AMPA
  percentage of inhibition of activity: 3.7%
FLT-1 kinase (VEGFR1)
  inhibition at 1 µM: -4.8%
